Where a name gives a salt, the structure may show the parent alone.
What was measured:
[1] = target: T1, P-gp (Homo sapiens, UniProt P08183); assay: P-gp inhibition in Caco-2 cells; format: in vitro ADME; conditions: human, Caco-2, probe digoxin
[2] = target: T2, OATP1B1 (Homo sapiens, UniProt Q9Y6L6); assay: SLC transportation assay in HEK293 cells; format: in vitro ADME; conditions: control substrate, 20 µM
T2 sequence (Q9Y6L6 1-691): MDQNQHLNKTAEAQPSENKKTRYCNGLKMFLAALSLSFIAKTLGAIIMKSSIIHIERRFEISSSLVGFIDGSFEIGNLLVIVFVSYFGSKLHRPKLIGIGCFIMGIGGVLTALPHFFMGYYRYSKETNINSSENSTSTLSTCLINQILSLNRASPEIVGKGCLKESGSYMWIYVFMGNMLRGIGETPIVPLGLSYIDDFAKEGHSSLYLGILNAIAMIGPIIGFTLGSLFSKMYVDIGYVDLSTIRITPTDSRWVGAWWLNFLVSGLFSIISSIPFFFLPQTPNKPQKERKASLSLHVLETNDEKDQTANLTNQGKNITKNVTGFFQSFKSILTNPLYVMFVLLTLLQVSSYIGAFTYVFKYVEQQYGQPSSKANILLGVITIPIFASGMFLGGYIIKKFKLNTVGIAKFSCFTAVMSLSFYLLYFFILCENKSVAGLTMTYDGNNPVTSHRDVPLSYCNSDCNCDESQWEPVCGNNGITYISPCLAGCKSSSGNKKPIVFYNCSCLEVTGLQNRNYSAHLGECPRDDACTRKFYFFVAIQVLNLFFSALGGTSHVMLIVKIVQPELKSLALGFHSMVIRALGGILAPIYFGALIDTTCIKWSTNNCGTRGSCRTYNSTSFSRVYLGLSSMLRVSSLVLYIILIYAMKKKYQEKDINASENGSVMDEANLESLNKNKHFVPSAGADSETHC

[3] = target: T3, OATP1B3 (Homo sapiens, UniProt Q9NPD5); assay: SLC transportation assay in HEK293 cells; format: in vitro ADME; conditions: control substrate, 20 µM
T3 sequence (Q9NPD5 1-702): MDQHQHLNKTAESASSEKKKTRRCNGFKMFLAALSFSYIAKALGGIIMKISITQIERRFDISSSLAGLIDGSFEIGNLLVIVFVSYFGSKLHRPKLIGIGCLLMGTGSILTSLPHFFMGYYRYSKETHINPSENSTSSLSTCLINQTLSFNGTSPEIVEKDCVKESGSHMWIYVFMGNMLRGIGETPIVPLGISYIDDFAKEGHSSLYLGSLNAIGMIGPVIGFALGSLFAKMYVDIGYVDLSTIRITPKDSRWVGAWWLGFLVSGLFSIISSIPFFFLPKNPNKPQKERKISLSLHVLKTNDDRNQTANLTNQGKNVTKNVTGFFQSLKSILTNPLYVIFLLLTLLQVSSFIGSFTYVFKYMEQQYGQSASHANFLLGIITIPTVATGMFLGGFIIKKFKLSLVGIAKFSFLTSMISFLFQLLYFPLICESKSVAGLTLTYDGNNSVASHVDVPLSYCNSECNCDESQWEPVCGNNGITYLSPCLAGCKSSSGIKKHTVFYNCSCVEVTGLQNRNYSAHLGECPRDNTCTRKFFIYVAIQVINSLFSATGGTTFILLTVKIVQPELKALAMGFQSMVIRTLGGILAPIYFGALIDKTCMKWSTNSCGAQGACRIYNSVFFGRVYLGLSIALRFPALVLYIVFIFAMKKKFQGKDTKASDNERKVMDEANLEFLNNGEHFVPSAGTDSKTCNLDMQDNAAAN

[4] = target: T4, OAT3 (Homo sapiens, UniProt Q8TCC7); assay: SLC transportation assay in HEK293 cells; format: in vitro ADME; conditions: control substrate, 20 µM
T4 sequence (Q8TCC7 1-542): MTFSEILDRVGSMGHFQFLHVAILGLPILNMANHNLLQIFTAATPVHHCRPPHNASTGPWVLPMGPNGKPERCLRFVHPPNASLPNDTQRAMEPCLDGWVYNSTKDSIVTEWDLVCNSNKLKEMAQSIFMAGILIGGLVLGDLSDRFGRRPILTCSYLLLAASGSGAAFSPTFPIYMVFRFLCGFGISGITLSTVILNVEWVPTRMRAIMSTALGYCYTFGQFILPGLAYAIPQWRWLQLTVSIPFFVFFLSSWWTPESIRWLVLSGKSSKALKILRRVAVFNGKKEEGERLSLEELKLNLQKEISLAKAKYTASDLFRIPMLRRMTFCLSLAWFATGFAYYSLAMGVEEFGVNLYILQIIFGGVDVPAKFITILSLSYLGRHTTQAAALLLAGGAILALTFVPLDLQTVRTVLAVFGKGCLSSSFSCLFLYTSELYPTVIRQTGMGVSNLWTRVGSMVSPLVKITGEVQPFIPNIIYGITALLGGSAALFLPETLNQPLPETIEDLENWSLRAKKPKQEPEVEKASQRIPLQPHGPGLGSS

[5] = target: T5, OCT2 (Homo sapiens, UniProt O15244); assay: SLC transportation assay in HEK293 cells; format: in vitro ADME; conditions: control substrate, 50 µM
T5 sequence (O15244 1-555): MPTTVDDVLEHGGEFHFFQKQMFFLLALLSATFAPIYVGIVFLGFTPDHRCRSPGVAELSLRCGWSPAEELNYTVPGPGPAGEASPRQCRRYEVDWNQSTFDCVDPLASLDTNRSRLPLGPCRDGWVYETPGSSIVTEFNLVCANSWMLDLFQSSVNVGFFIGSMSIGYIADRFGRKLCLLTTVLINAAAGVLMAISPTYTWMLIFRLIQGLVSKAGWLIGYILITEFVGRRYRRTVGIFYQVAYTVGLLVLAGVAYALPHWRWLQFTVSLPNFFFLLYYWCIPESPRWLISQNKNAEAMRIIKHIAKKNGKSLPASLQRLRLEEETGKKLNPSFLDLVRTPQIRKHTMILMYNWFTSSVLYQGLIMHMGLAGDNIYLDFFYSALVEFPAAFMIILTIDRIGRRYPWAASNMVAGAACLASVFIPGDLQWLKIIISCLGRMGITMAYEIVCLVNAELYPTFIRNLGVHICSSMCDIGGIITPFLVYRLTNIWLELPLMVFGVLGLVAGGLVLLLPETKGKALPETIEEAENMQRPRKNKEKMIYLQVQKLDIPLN

[6] = system: CYP1A2; assay: in vitro; conditions: human, positive control omeprazole 50 µM
[7] = target: T4, OAT3; assay: SLC inhibition assay in HEK293 cells; format: in vitro ADME; conditions: human, HEK293 cells overexpressing OAT3 (and MOCK cells), probe estrone sulfate
[8] = target: T5, OCT2; assay: SLC inhibition assay in HEK293 cells; format: in vitro ADME; conditions: human, HEK293 cells overexpressing OCT2 (and MOCK cells), probe metformin
[9] = system: CYP3A; conditions: cited from earlier work
[10] = target: T1, P-gp; conditions: healthy subjects; cited from earlier work
[11] = system: CYP2B6; assay: CYP induction in human hepatocytes; format: in vitro ADME; conditions: human, cryopreserved human hepatocytes
[12] = target: T6, human BCRP (Homo sapiens, UniProt Q9UNQ0); assay: BCRP inhibition in vesicles; format: in vitro ADME; conditions: BCRP inhibition assay, buffer vehicle
T6 sequence (Q9UNQ0 1-655): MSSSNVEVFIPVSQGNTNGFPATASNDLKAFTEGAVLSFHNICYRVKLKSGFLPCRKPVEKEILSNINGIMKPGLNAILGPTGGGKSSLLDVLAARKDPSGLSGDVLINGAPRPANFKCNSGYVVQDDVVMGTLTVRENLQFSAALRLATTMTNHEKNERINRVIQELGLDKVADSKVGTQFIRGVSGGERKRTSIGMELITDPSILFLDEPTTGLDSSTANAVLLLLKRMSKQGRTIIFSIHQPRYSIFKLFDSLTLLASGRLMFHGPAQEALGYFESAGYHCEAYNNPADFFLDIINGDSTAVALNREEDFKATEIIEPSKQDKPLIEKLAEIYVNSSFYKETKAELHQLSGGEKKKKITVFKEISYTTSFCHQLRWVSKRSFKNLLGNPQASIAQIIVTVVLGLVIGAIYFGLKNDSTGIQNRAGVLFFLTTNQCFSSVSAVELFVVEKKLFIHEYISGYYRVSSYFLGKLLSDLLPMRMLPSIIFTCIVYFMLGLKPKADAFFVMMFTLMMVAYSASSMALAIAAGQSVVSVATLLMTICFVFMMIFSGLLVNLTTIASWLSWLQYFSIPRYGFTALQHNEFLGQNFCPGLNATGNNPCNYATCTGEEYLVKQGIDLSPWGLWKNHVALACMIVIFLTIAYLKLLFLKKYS

[13] = target: T6, human BCRP; assay: BCRP transportation in inside-out vesicles; format: in vitro ADME; conditions: BCRP vesicles, LFY 10 μM probe substrate

T1 sequence (P08183 whole entry): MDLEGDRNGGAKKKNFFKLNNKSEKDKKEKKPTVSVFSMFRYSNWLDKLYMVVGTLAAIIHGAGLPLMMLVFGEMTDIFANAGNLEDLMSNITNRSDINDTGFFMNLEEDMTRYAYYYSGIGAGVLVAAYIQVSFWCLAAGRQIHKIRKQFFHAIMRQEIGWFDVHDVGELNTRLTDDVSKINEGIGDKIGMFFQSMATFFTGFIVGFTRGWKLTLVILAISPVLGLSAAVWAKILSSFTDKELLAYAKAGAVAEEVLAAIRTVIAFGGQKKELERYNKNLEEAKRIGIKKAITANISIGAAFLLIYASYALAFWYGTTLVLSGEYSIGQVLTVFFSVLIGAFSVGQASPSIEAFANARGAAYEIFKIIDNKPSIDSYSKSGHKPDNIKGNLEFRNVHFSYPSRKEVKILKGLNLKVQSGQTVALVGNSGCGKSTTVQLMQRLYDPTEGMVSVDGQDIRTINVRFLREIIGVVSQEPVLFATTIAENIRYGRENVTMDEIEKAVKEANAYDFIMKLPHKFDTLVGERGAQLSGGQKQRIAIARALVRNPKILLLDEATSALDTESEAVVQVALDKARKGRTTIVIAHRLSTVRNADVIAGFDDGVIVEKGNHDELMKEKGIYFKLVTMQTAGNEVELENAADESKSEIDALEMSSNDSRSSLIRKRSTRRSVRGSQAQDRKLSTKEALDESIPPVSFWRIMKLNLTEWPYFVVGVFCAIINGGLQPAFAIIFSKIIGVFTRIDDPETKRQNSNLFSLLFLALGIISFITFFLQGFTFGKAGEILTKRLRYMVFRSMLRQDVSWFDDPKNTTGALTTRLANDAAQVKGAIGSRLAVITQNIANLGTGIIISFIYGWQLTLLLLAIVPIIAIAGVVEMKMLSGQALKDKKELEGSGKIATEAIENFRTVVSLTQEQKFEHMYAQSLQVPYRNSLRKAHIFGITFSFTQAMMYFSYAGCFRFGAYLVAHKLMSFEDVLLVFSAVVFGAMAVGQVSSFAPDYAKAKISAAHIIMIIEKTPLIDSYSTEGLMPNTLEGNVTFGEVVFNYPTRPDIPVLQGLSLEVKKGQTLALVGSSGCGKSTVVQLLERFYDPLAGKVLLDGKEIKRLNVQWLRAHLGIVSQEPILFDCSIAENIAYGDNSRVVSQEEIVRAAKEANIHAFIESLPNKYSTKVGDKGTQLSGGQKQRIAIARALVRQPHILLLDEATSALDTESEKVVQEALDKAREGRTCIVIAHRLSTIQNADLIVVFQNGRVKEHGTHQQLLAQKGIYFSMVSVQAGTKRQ

C[C@H]1O[C@@H](O[C@H]2[C@@H](O)C[C@H](O[C@H]3[C@@H](O)C[C@H](O[C@H]4CC[C@@]5(C)[C@H](CC[C@@H]6[C@@H]5C[C@@H](O)[C@]5(C)[C@@H](C7=CC(=O)OC7)CC[C@]65O)C4)O[C@@H]3C)O[C@@H]2C)C[C@H](O)[C@@H]1O [Digoxin, reference compound]
Papp B→A at 120 min, 10 µM [1]: 15.4 ± 0.4 ×10⁻⁶ cm/s

C[C@]12CC[C@@H]3c4ccc(O)cc4CC[C@H]3[C@@H]1CC[C@@H]2O[C@@H]1O[C@H](C(=O)O)[C@@H](O)[C@H](O)[C@H]1O [Estradiol‐17β‐glucuronide, reference compound]
Uptake ratio [2]: 38.5 ± 5.5
Uptake ratio [3]: 5.82 ± 0.62

C[C@]12CC[C@@H]3c4ccc(OS(=O)(=O)O)cc4CC[C@H]3[C@@H]1CCC2=O [Estrone sulfate, reference compound]
Uptake ratio [4]: 16.1 ± 0.45

CN(C)C(=N)N=C(N)N [Metformin, reference compound]
Uptake ratio [5]: 3.49 ± 0.26

COc1ccc2[nH]c([S+]([O-])Cc3ncc(C)c(OC)c3C)nc2c1 (stereo not shown) [Omeprazole]
fold induction at 2 days, 50 µM ([6]; Fold induction of activity): 42 ± 6.4
fold induction at 2 days, 50 µM ([6]; Fold induction of mRNA level): 82 ± 94

CCCN(CCC)S(=O)(=O)c1ccc(C(=O)O)cc1 [Probenecid, reference compound]
activity at 50 µM [7]: 12.5 ± 8%

C=C[C@H]1C[N@@]2CC[C@H]1C[C@@H]2[C@@H](O)c1ccnc2ccc(OC)cc12 [Quinidine, reference compound]
activity at 500 µM [8]: 31.5 ± 8%

CC[C@H](Nc1ncnc2[nH]cnc12)c1nc2cccc(F)c2c(=O)n1-c1ccccc1 [idelalisib]
Increase of exposure of midazolam [9]: 5.15 fold

CCOc1cc2ncc(C#N)c(Nc3ccc(OCc4ccccn4)c(Cl)c3)c2cc1NC(=O)/C=C/CN(C)C [neratinib]
Increase of AUC of digoxin [10]: 32%
Increase of mean digoxin C max [10]: 54%

CCC1(c2ccccc2)C(=O)NC(=O)NC1=O [phenobarbital, reference compound]
fold induction at 2 days, 1000 µM [11]: 6.4 ± 3
fold induction at 2 days, 1000 µM ([11]; probe bupropion): 9.6 ± 5.4

Lucifer Yellow [LFY, reference compound]
Uptake ratio of LFY [12]: 14.9 fold
Uptake ratio (ATP versus AMP) [13]: 17.4 ± 0.31 fold

— publication PMC8524670 (Pharmacology Research & Perspectives, 2021)
